Results published in ChEMBL document CHEMBL3352341, “Design, synthesis and biological characterization of thiazolidin-4-one derivatives as promising inhibitors of Toxoplasma gondii” (Eur J Med Chem, 2014).
pIC50: −log10 of the molar value. The source made the active and inactive calls.

Legend:
Toxoplasma gondii [1] = experiment: Antiparasitic activity against Toxoplasma gondii infected in human foreskin fibroblasts assessed as inhibition of replication measured as decrease in the number of tachyzoites in vacuole at 10 uM after 24 hrs by fluorescence assay; format: functional, organism-based
Toxoplasma gondii [2] = experiment: Antiparasitic activity against Toxoplasma gondii infected in human foreskin fibroblasts assessed as tachyzoite growth inhibition after 5 days by colorimetric assay; format: functional, organism-based; conditions: 120 h
Toxoplasma gondii [3] = experiment: Antiparasitic activity against Toxoplasma gondii infected in human foreskin fibroblasts assessed as inhibition of invasion compound pretreated at 10 uM for 20 mins before infection after 1 hr by fluorescence assay; format: functional, organism-based
Toxoplasma gondii [4] = experiment: Antiparasitic activity against Toxoplasma gondii infected in human foreskin fibroblasts assessed as inhibition of attachment compound pretreated at 10 uM for 20 mins before infection after 1 hr by fluorescence assay; format: functional, organism-based
[5] = Cytotoxicity against human foreskin fibroblasts after 5 days by colorimetric assay; format: cell-based; conditions: human foreskin fibroblasts (HFF cells), read-out: TD50
[6] = Therapeutic index, ratio of TD50 for human foreskin fibroblasts to IC50 for Toxoplasma gondii infected in human foreskin fibroblasts; conditions: read-out: TI
Toxoplasma gondii [7] = experiment: Antiparasitic activity against Toxoplasma gondii infected in human foreskin fibroblasts assessed as inhibition of replication measured as recovery at 10 uM for 24 hrs followed by washout measured after 96 hrs by fluorescence assay; format: functional, organism-based
Toxoplasma gondii [8] = experiment: Antiparasitic activity against Toxoplasma gondii infected in human foreskin fibroblasts assessed as inhibition of tachyzoite replication compound pretreated at 10 uM for 24 hrs before infection by fluorescence assay; format: functional, organism-based

Row | Compound | inhibition (Toxoplasma gondii [1]) | pIC50 (Toxoplasma gondii [2]) | IC90 (Toxoplasma gondii [2]) | inhibition (Toxoplasma gondii [3]) | inhibition (Toxoplasma gondii [4]) | CC50 at 120 h [5] | selectivity ratio [6] | inhibition (Toxoplasma gondii [7]) | inhibition (Toxoplasma gondii [8])
1 | O=C1CSC(NN=C2CCCCC2)=N1 | Active | 4.55 | 278 µM | Active | Active | ≥ 320 µM | 20 | – | –
2 | CC1CCC/C1=N/N=C1\NC(=O)CS1 (stereo unspecified) | Active | 6.05 | 2 µM | Active | Active | 35 µM | 39 | – | –
3 | O=C1CS/C(=N/N=C\c2cccc3ccccc23)N1 | Active | 5.41 | 31 µM | Active | Active | ≥ 320 µM | 144 | inactive | –
4 | C/C(=N/N=C1\NC(=O)CS1)c1cc2ccccc2oc1=O | – | 5.10 | 49 µM | Active | Active | ≥ 320 µM | 70 | – | –
5 | O=C1CSC(NN=C2CCCC2)=N1 | Active | 4.57 | 175 µM | Active | Active | ≥ 320 µM | 21 | – | –
6 | CC1CC/C(=N/N=C2\NC(=O)CS2)C1 (stereo unspecified) | Active | 4.62 | 154 µM | Active | Active | ≥ 320 µM | 23 | – | –
7 | CC/C(C)=N\N=C1\SCC(=O)N1Cc1ccccc1 | Active | 4.00 | 392 µM | – | – | ≥ 320 µM | 6 | – | –
8 | O=C1CS/C(=N/N=C\c2ccc3c(c2)OCO3)N1Cc1ccccc1 | Active | 3.54 | 2140 µM | – | – | ≥ 320 µM | 2 | – | –
9 | O=C1CS/C(=N/N=C\c2cccc3ccccc23)N1Cc1ccccc1 | – | 4.42 | 79 µM | Active | Active | ≥ 320 µM | 15 | – | –
10 | C/C(=N/N=C1\NC(=O)CS1)c1ccccc1 | Active | 3.94 | 262 µM | – | – | ≥ 320 µM | 5 | – | –
11 | CCC(CC)=N/N=C1/SCC(=O)N1Cc1ccccc1 | Active | 4.44 | 243 µM | – | – | ≥ 320 µM | 16 | – | –
12 | C/C(=N/N=C1/SCC(=O)N1Cc1ccccc1)c1cccs1 | Active | 4.43 | 84 µM | Active | Active | ≥ 320 µM | 15 | – | –
13 | C/C(=N/N=C1/SCC(=O)N1Cc1ccccc1)c1cccnc1 | Active | 4.09 | 181 µM | – | – | 147 µM | 3 | – | –
14 | CCCCCC/C(C)=N\N=C1/NC(=O)CS1 | Active | 4.51 | 188 µM | Active | Active | ≥ 320 µM | 18 | – | –
15 | C/C(=N\N=C1/NC(=O)CS1)c1ccncc1 | Active | 4.28 | 401 µM | – | – | ≥ 320 µM | 11 | – | –
16 | CCCCCC/C(C)=N\N=C1\SCC(=O)N1Cc1ccccc1 | Active | 4.70 | 88 µM | – | – | 109 µM | 6 | – | –

Row | Compound | inhibition (Toxoplasma gondii [1]) | pIC50 (Toxoplasma gondii [2]) | IC90 (Toxoplasma gondii [2]) | inhibition (Toxoplasma gondii [3]) | inhibition (Toxoplasma gondii [4]) | CC50 at 120 h [5] | selectivity ratio [6] | inhibition (Toxoplasma gondii [7]) | inhibition (Toxoplasma gondii [8])
17 | O=C1CS/C(=N/N=C\c2cccnc2)N1Cc1ccccc1 | Active | 3.95 | 245 µM | – | – | 239 µM | 2 | – | –
18 | C/C(CC(C)C)=N/N=C1/SCC(=O)N1Cc1ccccc1 | Active | 4.64 | 188 µM | – | – | 220 µM | 10 | – | –
19 | C/C(=N/N=C1/SCC(=O)N1Cc1ccccc1)c1ccco1 | Active | 4.12 | 212 µM | – | – | ≥ 320 µM | 7 | – | –
20 | C/C(=N/N=C1\NC(=O)CS1)c1cccs1 | Active | 4.19 | 387 µM | – | – | ≥ 320 µM | 9 | – | –
21 | COc1cc(Cc2cnc(N)nc2N)cc(OC)c1OC [TRIMETHOPRIM] | Active | 4.89 | 73 µM | – | – | ≥ 320 µM | 43 | – | –
22 | C/C(=N/N=C1/SCC(=O)N1Cc1ccccc1)c1ccncc1 | Active | 4.44 | 103 µM | Active | Active | 183 µM | 5 | – | –
23 | CCC(CC)=N/N=C1\NC(=O)CS1 | Active | 3.90 | 580 µM | – | – | ≥ 320 µM | 4 | – | –
24 | CC(C)=N/N=C1\NC(=O)CS1 | Active | 3.68 | 852 µM | – | – | ≥ 320 µM | 3 | – | inactive
25 | C/C(=N/N=C1/SCC(=O)N1Cc1ccccc1)c1ccc2ccccc2c1 | Active | 3.96 | 499 µM | – | – | ≥ 320 µM | 5 | – | –
26 | O=C1CS/C(=N/N=C\c2ccncc2)N1 | Active | 4.70 | 129 µM | Active | Active | ≥ 320 µM | 28 | – | –
27 | CCCC/C(CC)=N\N=C1\SCC(=O)N1Cc1ccccc1 | Active | 4.82 | 121 µM | Active | Active | ≥ 320 µM | 37 | – | –
28 | CC(C)=N/N=C1/SCC(=O)N1Cc1ccccc1 | Active | 3.63 | 636 µM | – | – | ≥ 320 µM | 2 | – | –
29 | CCC/C(C)=N\N=C1\SCC(=O)N1Cc1ccccc1 | Active | 4.33 | 214 µM | – | – | ≥ 320 µM | 12 | – | –
30 | CC1CCC/C(=N/N=C2/SCC(=O)N2Cc2ccccc2)C1 (stereo unspecified) | Active | 4.24 | 248 µM | – | – | 95 µM | 2 | – | –
31 | CC1CCCC/C1=N/N=C1/SCC(=O)N1Cc1ccccc1 (stereo unspecified) | Active | 4.37 | 171 µM | – | – | ≥ 320 µM | 13 | – | –
32 | C/C(CC(C)C)=N/N=C1\NC(=O)CS1 | Active | 4.64 | 126 µM | Active | Active | 290 µM | 13 | – | –
